In patent US10201546B2, “Quinolinyl modulators of RORγt” (Janssen Pharmaceutica NV, priority 2013, dated 2019):

Target: human RORγt LBD fused to the DNA binding domain of the GAL4 protein (Homo sapiens (Human), UniProt P51449)
Test: RORγt (LBD) reporter assay in HEK293T cells
Assay type: cell-based
Set-up: RORγt (LBD) Reporter Assay, % inhibition: dose or concentration left out as unconfirmed
Details: for inhibition at 6 µM: HEK-293T, read-out: RORγt (LBD) Reporter Assay, % inhibition @ 6 μM, @ 6 μM
Excerpt: A reporter assay was used to test functional activity of RORγt modulatory compounds on transcriptional activation driven by the RORγt LBD. Cells used in the assay were co-transfected with two constructs. The first construct, pBIND-RORγt LBD, contained the wild type human RORγt LBD fused to the DNA binding domain of the GAL4 protein. The second construct, pGL4.31 (Promega Cat no. C935A), contained multiple GAL4 responsive DNA elements upstream of firefly luciferase.
The pBIND vector contains the GAL4 DNA Binding Domain (GAL4 DBD) and the renilla luciferase gene under control of the SV40 promoter. Renilla luciferase expression serves as a control for transfection efficiency and cell viability.
The reporter assay was performed by transiently transfecting HEK293T cells with 5 μg of pBIND-RORγt LBD or pBIND-RORγt LBD-AF2 and 5 μg pGL4.31 (Promega Cat no. C935A) using Fugene 6 (Invitrogen Cat no. E2691) at a 1:6 ratio of DNA:Fugene 6 in a T-75 flask in which cells were at least 80% confluent. Twenty four hours after bulk transfection, cells were plated into 96-well plates at 50,000 cells/well in phenol-red free DMEM containing 5% Lipid Reduced FCS and Pen/Strep. Six hours after plating, cells were treated with compounds for 24 hours. Media was removed and cells were lysed with 50 μL 1× Glo Lysis Buffer (Promega). Dual Glo Luciferase Reagent (50 μL/well) was then added and firefly luciferase luminescence was read on an Envision after a ten minute incubation. Finally, Stop and Glo reagent (50 L/well) was added and renilla luciferase luminescence was read on an Envision after a ten minute incubation. To calculate the effect of compounds on RORγt activity, the ratio of firefly to renilla luciferase was determined and plotted against compound concentration. Agonist compounds increase RORγt-driven luciferase expression, and antagonist or inverse agonist compounds decrease luciferase expression.

human RORγt LBD fused to the DNA binding domain of the GAL4 protein, sequence (P51449 258-518): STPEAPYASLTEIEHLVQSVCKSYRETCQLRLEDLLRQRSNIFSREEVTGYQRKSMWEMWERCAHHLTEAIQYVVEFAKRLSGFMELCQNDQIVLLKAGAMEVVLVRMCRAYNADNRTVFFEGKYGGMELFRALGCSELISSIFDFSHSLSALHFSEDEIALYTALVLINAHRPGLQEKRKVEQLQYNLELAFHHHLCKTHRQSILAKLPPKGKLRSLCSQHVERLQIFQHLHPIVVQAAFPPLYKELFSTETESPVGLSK

Row | SMILES | inhibition at 6 µM [%] | RORγt (LBD) Reporter Assay, % inhibition @ 6 μM [%] | further results
1 | COc1nc2ccc(C(O)(c3ccnc(C(F)(F)F)c3)c3cncn3C)cc2c(Cl)c1CN1CCC(C(F)(F)F)CC1 (single isomer, unassigned) [Example 100b, (4-Chloro-2-methoxy-3-((4-(trifluoromethyl)piperidin-1-yl)methyl)quinolin-6-yl)(1-methyl-1H-imidazol-5-yl)(2-(trifluoromethyl)pyridin-4-yl)methanol] | 90 |  | 
2 | COc1nc2ccc(C(O)(c3cncn3C)C3CCN(C(C)=O)CC3)cc2c(Cl)c1CC1CCOCC1 (single isomer, unassigned) [Example 5c, 1-(4-((4-Chloro-2-methoxy-3-((tetrahydro-2H-pyran-4-yl)methyl)quinolin-6-yl)(hydroxy)(1-methyl-1H-imidazol-5-yl)methyl)piperidin-1-yl)ethanone] |  | 36 | 
3 | COc1nc2ccc(C(O)(c3ccc(C)nc3C)c3cnnn3C)cc2c(Cl)c1CN1CCC(C(F)(F)F)CC1 (stereo not shown) [Example 103a, (4-Chloro-2-methoxy-3-((4-(trifluoromethyl)piperidin-1-yl)methyl)quinolin-6-yl)(2,6-dimethylpyridin-3-yl)(1-methyl-1H-1,2,3-triazol-5-yl)methanol] | 101 |  | 
4 | COc1nc2ccc(C(O)(c3ccc(C)nc3C)c3cnnn3C)cc2c(Cl)c1CC1CC1 (stereo not shown) [Example 14a, (4-Chloro-3-(cyclopropylmethyl)-2-methoxyquinolin-6-yl)(2,6-dimethylpyridin-3-yl)(1-methyl-1H-1,2,3-triazol-5-yl)methanol] | 99 |  | 
5 | COc1nc2ccc(C(O)(c3ccc(C)nc3C)c3cnnn3C)cc2c(Cl)c1OCc1nccs1 (single isomer, unassigned) [Example 73b, [4-Chloro-2-methoxy-3-(1,3-thiazol-2-ylmethoxy)quinolin-6-yl](2,6-dimethylpyridin-3-yl)(1-methyl-1H-1,2,3-triazol-5-yl)methanol] |  | −15 | 
6 | COc1nc2ccc(C(O)(c3ccc(C)nc3C)c3cnnn3C)cc2c(Cl)c1CN1CCC(F)(F)CC1 (single isomer, unassigned) [Example 107c, (4-Chloro-3-((4,4-difluoropiperidin-1-yl)methyl)-2-methoxyquinolin-6-yl)(2,6-dimethylpyridin-3-yl)(1-methyl-1H-1,2,3-triazol-5-yl)methanol] |  | 54 | 
7 | COc1nc2ccc(C(O)(c3ccc(C)nc3C)c3cnnn3C)cc2c(Cl)c1OCc1ncccn1 (single isomer, unassigned) [Example 66b, [4-Chloro-2-methoxy-3-(pyrimidin-2-ylmethoxy)quinolin-6-yl](2,6-dimethylpyridin-3-yl)(1-methyl-1H-1,2,3-triazol-5-yl)methanol] | -129 |  | 
8 | COc1nc2ccc(C(O)(c3ccc(C)nc3C)c3cnnn3C)cc2c(Cl)c1CC1CC1 (single isomer, unassigned) [Example 14b, (4-Chloro-3-(cyclopropylmethyl)-2-methoxyquinolin-6-yl)(2,6-dimethylpyridin-3-yl)(1-methyl-1H-1,2,3-triazol-5-yl)methanol] |  | 72 | 
9 | COc1nc2ccc(C(O)(c3ccc(C)nc3C)c3cnnn3C)cc2c(Cl)c1CC(C)C (single isomer, unassigned) [Example 133c, (4-Chloro-3-isobutyl-2-methoxyquinolin-6-yl)(2,6-dimethylpyridin-3-yl)(1-methyl-1H-1,2,3-triazol-5-yl)methanol] |  |  | RORγt (LBD) Reporter Assay, % inhibition: 98%
10 | COCCOc1c(OC)nc2ccc(C(O)(c3ccc(C(F)(F)F)nc3)c3cncn3C)cc2c1Cl (single isomer, unassigned) [Example 79c, [4-Chloro-2-methoxy-3-(2-methoxyethoxy)quinolin-6-yl](1-methyl-1H-imidazol-5-yl)[6-(trifluoromethyl)pyridin-3-yl]methanol] |  | −2.5 | 
